Experimental data: US7579331B2, “Method of improved diuresis in individuals with impaired renal function” (Novacardia, Inc., priority 2004, dated 2009)
Where two headings read alike, the source gives them in different places.

Experiments:
adenosine A1 receptors [1] = target: T1, adenosine A1 receptors (Homo sapiens, UniProt P30542); settings: BG 9719 relative to KW-3902
T1 sequence (P30542 1-326): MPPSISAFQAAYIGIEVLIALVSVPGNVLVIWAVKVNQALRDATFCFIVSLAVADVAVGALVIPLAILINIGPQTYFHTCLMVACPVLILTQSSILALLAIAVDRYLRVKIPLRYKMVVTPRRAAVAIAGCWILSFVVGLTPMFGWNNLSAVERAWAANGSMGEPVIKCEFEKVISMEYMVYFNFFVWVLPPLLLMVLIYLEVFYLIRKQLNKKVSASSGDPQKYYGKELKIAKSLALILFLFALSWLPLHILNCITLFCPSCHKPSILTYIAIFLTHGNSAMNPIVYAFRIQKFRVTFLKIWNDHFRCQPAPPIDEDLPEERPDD

[2] = reported by Ticho et al 2003; cited from earlier work
urine volume = settings: equi-potent dose .3 mg/kg or 20 mg, Wolff et al 1998; cited from earlier work
adenosine A1 receptors [3] = target: T1, adenosine A1 receptors; settings: read-out: A1KI, cited from earlier work

greater affinity for the A1 receptor than KW-3902 (adenosine A1 receptors [1]): 60%
Structure (SMILES): CCCn1c(=O)c2nc([C@H]3C[C@H]4C[C@@H]3[C@@H]3O[C@H]43)[nH]c2n(CCC)c1=O [BG 9719]
solubility [2]: poor
stability [2]: poor
% Urine volume increase over placebo, 3 hr (urine volume): 33%
Ki (adenosine A1 receptors [3]; adenosine A1 receptor): 0.45 ± 0.04 nM
Ki (adenosine A1 receptors [3]; repeated in the equi-potent dose table): 0.45 ± 0.04 nM
